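Assay format: 96-well plates, 48-hour exposure. GI50 = concentration required for 50% inhibition of growth.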 The source made the active and inactive calls. Rule as the data show it: active = GI50 up to about 1.1 µM and inactive = higher.
Columns and labels:
Assay in all cases: growth of human tumour cells (NCI), 48 h
[1] = test system: 786-0
[2] = test system: OVCAR-3
[3] = test system: PC-3
[4] = test system: SNB-19
[5] = test system: HOP-92
[6] = test system: HT-29
[7] = test system: SNB-75
[8] = test system: ACHN
[9] = test system: CCRF-CEM
[10] = test system: OVCAR-5
[11] = test system: MCF7
[12] = test system: MDA-MB-231
[13] = test system: A549
[14] = test system: SF-295
[15] = test system: NCI-H460
[16] = test system: CAKI-1
[17] = test system: HL-60
[18] = test system: UO-31
[19] = test system: DU-145
[20] = test system: SK-MEL-2
[21] = test system: HOP-62
[22] = test system: MDA-MB-435
[23] = test system: SK-MEL-5
[24] = test system: SF-268
[25] = test system: Hs-578T
[26] = test system: NCI/ADR-RES
[27] = test system: SK-MEL-28
[28] = test system: K562
[29] = test system: A498
[30] = test system: TK-10
[31] = test system: SK-OV-3
[32] = test system: HCT-15
[33] = test system: NCI-H23
[34] = test system: BT-549
[35] = test system: MDA-N
[36] = test system: IGROV-1
[37] = test system: KM12
[38] = test system: Malme-3M
[39] = test system: UACC-257
[40] = test system: HCC 2998
[41] = test system: EKVX
[42] = test system: SN12C
[43] = test system: T47D
[44] = test system: OVCAR-4
[45] = test system: COLO 205
[46] = test system: SW-620
[47] = test system: NCI-H522
[48] = test system: U-251
[49] = test system: RPMI-8226
[50] = test system: SF-539
[51] = test system: RXF 393
[52] = test system: OVCAR-8
[53] = test system: NCI-H226
[54] = test system: UACC-62
[55] = test system: M14
[56] = test system: HCT-116
[57] = test system: MOLT-4

Cc1c2c(OCC(O)CN3CCN(c4ccccc4)CC3)nn(C)c(=O)c2c(C)n1-c1ccccc1 (configuration not stated)
GI50 [1]: 18.8 µM (inactive) | GI50 [2]: 20.5 µM (inactive) | GI50 [3]: 22 µM (inactive) | GI50 [4]: 34.3 µM (inactive) | GI50 [5]: 44.4 µM (inactive) | GI50 [6]: 22.7 µM (inactive) | GI50 [7]: 19.8 µM (inactive) | GI50 [8]: 20.6 µM (inactive) | GI50 [9]: 31.2 µM (inactive) | GI50 [10]: 23.4 µM (inactive) | GI50 [11]: 18.4 µM (inactive) | GI50 [12]: 25.6 µM (inactive) | GI50 [13]: 24.7 µM (inactive) | GI50 [14]: 21.5 µM (inactive) | GI50 [15]: 25 µM (inactive) | GI50 [16]: 31.6 µM (inactive) | GI50 [17]: 20.1 µM (inactive) | GI50 [18]: 18.9 µM (inactive) | GI50 [19]: 37.9 µM (inactive) | GI50 [20]: 17.9 µM (inactive) | GI50 [21]: 39.6 µM (inactive) | GI50 [22]: 29.4 µM (inactive) | GI50 [23]: 16.6 µM (inactive) | GI50 [24]: 26.2 µM (inactive) | GI50 [25]: 24.4 µM (inactive) | GI50 [26]: 24.6 µM (inactive) | GI50 [27]: 18.4 µM (inactive) | GI50 [28]: 27 µM (inactive) | GI50 [29]: 20.3 µM (inactive) | GI50 [30]: 47.5 µM (inactive) | GI50 [31]: 43 µM (inactive) | GI50 [32]: 20.3 µM | GI50 [33]: 20.5 µM (inactive) | GI50 [34]: 21.9 µM (inactive) | GI50 [35]: 19.1 µM (inactive) | GI50 [36]: 35.2 µM (inactive) | GI50 [37]: 29.3 µM (inactive) | GI50 [38]: 21.8 µM (inactive) | GI50 [39]: 28 µM (inactive) | GI50 [40]: 29.7 µM (inactive) | GI50 [41]: 34.8 µM (inactive) | GI50 [42]: 18.5 µM (inactive) | GI50 [43]: 27.5 µM (inactive) | GI50 [44]: 30.3 µM (inactive) | GI50 [45]: 20.3 µM (inactive) | GI50 [46]: 29.9 µM (inactive) | GI50 [47]: 20.6 µM (inactive) | GI50 [48]: 16.6 µM (inactive) | GI50 [49]: 21.6 µM (inactive) | GI50 [50]: 19.2 µM (inactive) | GI50 [51]: 26.9 µM (inactive) | GI50 [52]: 33 µM (inactive) | GI50 [53]: 23.2 µM (inactive) | GI50 [54]: 17.1 µM (inactive) | GI50 [55]: 16.3 µM (inactive) | GI50 [56]: 17.5 µM (inactive) | GI50 [57]: 30.4 µM (inactive)

— ChEMBL document CHEMBL1201862, “PubChem BioAssay data set” (2004)
